Biological target: T1, TLR9 (Mus musculus, UniProt Q9EQU3)
T1 construct: from tissue; host or cells: whole animal: C57BL/6, FVB and FVB GADD34ΔC/ΔC mice
T1 sequence (Q9EQU3 26-1032): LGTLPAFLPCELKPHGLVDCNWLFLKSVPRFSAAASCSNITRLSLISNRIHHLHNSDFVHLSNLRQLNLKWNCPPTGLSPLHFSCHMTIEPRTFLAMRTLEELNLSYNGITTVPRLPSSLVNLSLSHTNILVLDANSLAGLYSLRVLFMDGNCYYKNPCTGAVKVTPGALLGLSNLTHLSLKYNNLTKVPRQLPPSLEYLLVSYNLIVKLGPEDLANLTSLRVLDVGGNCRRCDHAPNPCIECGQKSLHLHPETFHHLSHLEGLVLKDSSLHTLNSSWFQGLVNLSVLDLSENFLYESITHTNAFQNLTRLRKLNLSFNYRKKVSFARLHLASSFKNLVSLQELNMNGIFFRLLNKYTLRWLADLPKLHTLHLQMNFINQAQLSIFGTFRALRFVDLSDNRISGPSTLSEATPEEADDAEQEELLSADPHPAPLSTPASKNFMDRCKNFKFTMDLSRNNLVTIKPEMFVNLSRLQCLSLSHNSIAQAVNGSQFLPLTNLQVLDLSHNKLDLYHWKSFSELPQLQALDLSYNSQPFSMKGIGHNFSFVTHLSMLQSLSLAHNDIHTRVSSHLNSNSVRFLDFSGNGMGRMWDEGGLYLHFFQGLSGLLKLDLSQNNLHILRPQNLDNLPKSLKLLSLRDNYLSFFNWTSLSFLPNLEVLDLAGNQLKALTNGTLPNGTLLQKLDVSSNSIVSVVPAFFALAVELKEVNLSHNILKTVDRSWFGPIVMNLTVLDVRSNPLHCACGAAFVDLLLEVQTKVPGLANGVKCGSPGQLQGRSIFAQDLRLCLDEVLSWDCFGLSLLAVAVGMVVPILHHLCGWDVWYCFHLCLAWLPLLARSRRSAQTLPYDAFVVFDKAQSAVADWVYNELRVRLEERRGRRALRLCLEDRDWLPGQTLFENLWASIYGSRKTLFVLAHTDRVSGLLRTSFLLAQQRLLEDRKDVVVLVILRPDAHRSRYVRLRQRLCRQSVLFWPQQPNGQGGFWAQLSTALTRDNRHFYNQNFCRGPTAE
Assay: D-galN/CpG ODN 1826 cytokine shock model
Format: in vivo
Method: WT and GADD34^ΔC/ΔC mice were injected with D-galN (20 mg/mouse), CpG ODN 1826 or PBS for control mice (50 μg/20 g), GBZ or clonidine (2 mg/kg). (A) Survival of C57/BL6 mice is represented as total percentage of survival after 48 h or in a Kaplan-Meier plot. (B) Survival of FVB (WT) and FVB GADD34^ΔC/ΔC mice is represented as total percentage of survival after 48 h or in a Kaplan-Meier plot. (C) The concentration of circulating TNF-α, IL-10 and IL-6 in C57/BL6 mice was measured after 1 h and/or 3 h of CpG ODN 1826. (D) Liver tissue damage and histology score were blindly determined by a professional anatomopathologist. Statistical significance was assigned on sample comparison by a one-way ANOVA, followed by Tukey range test and on the survival curve using log-rank test, followed by Benjamini-Yekutieli correction (* p<0.05; ** p<0.005; ***p<0.0005.).
Wild type female mice C57BL/6 of 8 weeks of age were injected i.p. with 2 mg/kg of GBZ, clonidine or PBS/DMSO. One hour later, they were injected i.p. with 20 mg/mouse of d-GalN and ODN 1826 50 μg/20 g (or PBS). Mice survival was checked every 12 hours for up to 48 hours. For some experiments, blood sera were collected 1 and 3 h after the injection of D-galN. The serum was used to measure circulating cytokines (TNFα, IL-6, IFNβ IL-10, IL-12). For some experiments, the liver was collected for immunohistochemistry after two days. For i.p. injections, 1 ml syringes and 25 gauge needles were used. Blood was collected from the cheek with a 18 gauge needle; for the TMPD model, no more than 200 μL were collected each time, respecting the ethic statement.
Mouse kidney and liver were fixed in 10% buffered formalin for 24 h, then the tissues were dehydrated and embedded in paraffin. Tissue sections of 3.5 μm were cut using the microtom Leica RM2245. Hematoxylin-eosin staining was effectuated automatically with Leica autostainer XL. Finally, the slides were mounted with entellan and kept at room temperature. Biopsies were analyzed by an anatomopathologist and the clinical score was assigned in a blinded way. Pictures were taken with Nikon Eclipse.
• a) Lobular inflammation • 0—no inflammation, 1—mild lobular inflammation (<10% of liver parenchyma), 2—moderate lobular inflammation (10-50% of liver parenchyma), 3—severe lobular inflammation (>50% of liver parenchyma) • b) Portal inflammation • 0—no portal inflammation, 1—mild portal inflammation (<⅓ of portal tracts), 2—moderate portal inflammation (approximately 50% of portal tracks), 3—severe portal inflammation (>⅔ of portal tracts) • Portal and lobular inflammation score are added=inflammation score • c) Necrosis • 0—No necrosis, 1—<10% necrosis of liver parenchyma, 2—10-25% necrosis of liver parenchyma, 3—25% necrosis of liver parenchyma • Inflammation score and necrosis score are added=Total histologic score

[1] = WT mice, 1 hour after CpG injection, 2 mg/kg
[2] = WT mice, 3 h after CpG injection, 2 mg/kg

SMILES: Clc1cccc(Cl)c1NC1=NCCN1 [clonidine, N-(2,6-dichlorophényl)-4,5-dihydro-1H-imidazol-2-amine]
- survival after 48 h (C57BL/6 WT mice, D-galN + CpG ODN 1826, compound 2 mg/kg i.p.): not substantially changed
- circulating IL-6 plasma concentration [1]: some inhibitory effect
- circulating TNF-α plasma concentration [1]: some inhibitory effect
- inhibitory effect on IL-6 production [2]: not observed
- inhibitory effect on TNF-α production [2]: not observed

Source: patent publication US20210177814A1, “USE OF GUANABENZ OR DERIVATES THEREOF FOR THE TREATMENT OF TYPE I IFN-DEPENDENT PATHOLOGIES” (INSERM (Institut National de la Santé et de la Recherche …, priority 2018, published 2021)
